Measurements published in patent US9227959B2, “Ethynyl derivatives” (Hoffmann-La Roche Inc., priority 2012, dated 2016).

Columns and labels:
[1] = molecular target: T1, human mGlu5a receptor (Homo sapiens (Human), UniProt P41594); assay: Intracellular Ca2+ mobilization assay (mGlu5 PAM assay); type: cell-based; conditions: for EC50 (nM) mGlu5 PAM assay / mGlu5 PAM EC50 [nM]: HEK-293 cells with human mGlu5a, L-glutamate at EC20; for Activity profile: PAM = positive allosteric modulator, NAM = negative allosteric modulator; for Efficacy [%]: maximal response in % of maximal stimulatory effect of saturating L-glutamate
Method: A monoclonal HEK-293 cell line stably transfected with a cDNA encoding for the human mGlu5a receptor was generated; for the work with mGlu5 Positive Allosteric Modulators (PAMs), a cell line with low receptor expression levels and low constitutive receptor activity was selected to allow the differentiation of agonistic versus PAM activity. Cells were cultured according to standard protocols (Freshney, 2000) in Dulbecco's Modified Eagle Medium with high glucose supplemented with 1 mM glutamine, 10% (vol/vol) heat-inactivated bovine calf serum, Penicillin/Streptomycin, 50 μg/ml hygromycin and 15 μg/ml blasticidin (all cell culture reagents and antibiotics from Invitrogen, Basel, Switzerland).
About 24 hrs before an experiment, 5×10^4 cells/well were seeded in poly-D-lysine coated, black/clear-bottomed 96-well plates. The cells were loaded with 2.5 μM Fluo-4AM in loading buffer (1×HBSS, 20 mM HEPES) for 1 hr at 37° C. and washed five times with loading buffer. The cells were transferred into a Functional Drug Screening System 7000 (Hamamatsu, Paris, France), and 11 half logarithmic serial dilutions of test compound at 37° C. were added and the cells were incubated for 10-30 min. with on-line recording of fluorescence. Following this pre-incubation step, the agonist L-glutamate was added to the cells at a concentration corresponding to EC20 (typically around 80 μM) with on-line recording of fluorescence; in order to account for day-to-day variations in the responsiveness of cells, the EC20 of glutamate was determined immediately ahead of each experiment by recording of a full dose-response curve of glutamate.
Responses were measured as peak increase in fluorescence minus basal (i.e. fluorescence without addition of L-glutamate), normalized to the maximal stimulatory effect obtained with saturating concentrations of L-glutamate. Graphs were plotted with the % maximal stimulatory using XLfit, a curve fitting program that iteratively plots the data using Levenburg Marquardt algorithm. The single site competition analysis equation used was y=A+((B−A)/(1+((x/C)D))), where y is the % maximal stimulatory effect, A is the minimum y, B is the maximum y, C is the EC50, x is the log 10 of the concentration of the competing compound and D is the slope of the curve (the Hill Coefficient). From these curves the EC50 (concentration at which half maximal stimulation was achieved), the Hill coefficient as well as the maximal response in % of the maximal stimulatory effect obtained with saturating concentrations of L-glutamate were calculated.
A depression of the signal observed after addition of the EC20 concentration of L-glutamate was indicative of an inhibitory activity of the test compound.

[2] = molecular target: T1, human mGlu5a receptor; assay: MPEP binding assay; conditions: [3H]MPEP 2 nM, 1 h at 4° C., EBNA cell membranes
Method: For binding experiments, cDNA encoding human mGlu 5a receptor was transiently transfected into EBNA cells using a procedure described by Schlaeger and Christensen [Cytotechnology 15:1-13 (1998)]. Cell membrane homogenates were stored at −80° C. until the day of assay where upon they were thawed and resuspended and polytronised in 15 mM Tris-HCl, 120 mM NaCl, 100 mM KCl, 25 mM CaCl2, 25 mM MgCl2 binding buffer at pH 7.4 to a final assay concentration of 20 μg protein/well.
Saturation isotherms were determined by addition of twelve [^3H]MPEP concentrations (0.04-100 nM) to these membranes (in a total volume of 200 μl) for 1 h at 4° C. Competition experiments were performed with a fixed concentration of [^3H]MPEP (2 nM) and IC50 values of test compounds evaluated using 11 concentrations (0.3-10,000 nM). Incubations were performed for 1 h at 4° C.
At the end of the incubation, membranes were filtered onto unifilter (96-well white microplate with bonded GF/C filter preincubated 1 h in 0.1% PEI in wash buffer, Packard BioScience, Meriden, Conn.) with a Filtermate 96 harvester (Packard BioScience) and washed 3 times with cold 50 mM Tris-HCl, pH 7.4 buffer. Nonspecific binding was measured in the presence of 10 μM MPEP. The radioactivity on the filter was counted (3 min) on a Packard Top-count microplate scintillation counter with quenching correction after addition of 45 μl of microscint 40 (Canberra Packard S. A., Zürich, Switzerland) and shaking for 20 min.

T1 sequence (P41594 other isoform, or with tags, fused parts or gaps): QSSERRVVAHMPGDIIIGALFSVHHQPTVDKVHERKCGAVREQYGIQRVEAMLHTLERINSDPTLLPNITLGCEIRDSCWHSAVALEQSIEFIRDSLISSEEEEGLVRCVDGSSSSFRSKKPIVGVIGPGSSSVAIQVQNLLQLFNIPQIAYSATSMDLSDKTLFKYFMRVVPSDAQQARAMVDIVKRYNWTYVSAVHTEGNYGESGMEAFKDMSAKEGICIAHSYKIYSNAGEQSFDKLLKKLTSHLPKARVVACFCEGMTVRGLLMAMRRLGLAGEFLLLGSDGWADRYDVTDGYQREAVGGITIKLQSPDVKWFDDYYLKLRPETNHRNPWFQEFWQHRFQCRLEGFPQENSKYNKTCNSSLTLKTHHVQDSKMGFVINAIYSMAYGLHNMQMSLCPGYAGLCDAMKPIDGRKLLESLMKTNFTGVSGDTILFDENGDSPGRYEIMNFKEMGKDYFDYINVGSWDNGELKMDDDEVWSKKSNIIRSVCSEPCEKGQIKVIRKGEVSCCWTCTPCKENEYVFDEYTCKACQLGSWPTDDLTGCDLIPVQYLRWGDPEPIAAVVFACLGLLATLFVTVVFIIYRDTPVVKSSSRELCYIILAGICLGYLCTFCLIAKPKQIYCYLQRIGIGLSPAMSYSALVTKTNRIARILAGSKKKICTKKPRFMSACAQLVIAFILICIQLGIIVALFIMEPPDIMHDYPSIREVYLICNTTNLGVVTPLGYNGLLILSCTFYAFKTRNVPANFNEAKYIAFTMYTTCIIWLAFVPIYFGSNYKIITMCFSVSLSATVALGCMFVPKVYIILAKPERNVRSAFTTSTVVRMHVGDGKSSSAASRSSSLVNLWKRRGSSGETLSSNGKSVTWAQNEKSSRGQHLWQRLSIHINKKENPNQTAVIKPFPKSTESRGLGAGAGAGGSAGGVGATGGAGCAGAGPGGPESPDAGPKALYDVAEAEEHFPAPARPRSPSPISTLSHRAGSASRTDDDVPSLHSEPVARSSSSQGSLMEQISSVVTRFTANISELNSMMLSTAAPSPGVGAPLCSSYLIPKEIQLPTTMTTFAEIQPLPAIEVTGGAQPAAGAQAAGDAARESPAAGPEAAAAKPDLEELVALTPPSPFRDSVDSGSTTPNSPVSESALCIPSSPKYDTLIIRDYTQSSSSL

EC50 (nM) mGlu5 PAM assay [1] | Activity profile [1] | Ki [2] | mGlu5 PAM EC50 [nM] [1] | Structure (SMILES) | also measured
inactive | NAM | 72 nM | – | CC1(C)COCCN1C(=O)c1ccc(C#Cc2cccc(F)c2)cn1 [Example 1, (3,3-Dimethyl-morpholin-4-yl)-[5-(3-fluoro-phenylethynyl)-pyridin-2-yl]-methanone] | –
– | PAM | 201 nM | – | CC1(C)CN(C(=O)c2ccc(C#Cc3cccc(F)c3)cn2)CCO1 [Ref. 1 Ex. 35, reference compound] | –
– | – | – | inactive | CC1(C)COCCN1C(=O)c1ncc(C#Cc2cccc(Cl)c2)cn1 [drawing 8] | –
– | – | – | inactive | CC1(C)COCCN1C(=O)c1ccc(C#Cc2cccc(Cl)c2)cn1 [drawing 7] | –
– | – | – | inactive | O=C(c1ccc(C#Cc2cccc(Cl)c2)cn1)N1CCOCC1 [drawing 6] | –
inactive | – | – | – | O=C(c1ccc(C#Cc2cccc(Cl)c2)cn1)N1CCOCC1 [Example 2, [5-(3-Chloro-phenylethynyl)-pyridin-2-yl-morpholin-4-yl]-methanone] | –
– | – | – | inactive | CC1(C)COCCN1C(=O)c1ccc(C#Cc2cccc(F)c2)cn1 [drawing 5] | –
– | – | – | – | CC1(C)CCCN(C(=O)c2ncc(C#Cc3ccccc3)cn2)C1 [drawing 4] | Efficacy [%] [1]: 59%
– | PAM | 315 nM | – | CC1(C)CCCN(C(=O)c2ncc(C#Cc3ccccc3)cn2)C1 [Ref. 1 Ex. 46, reference compound] | –
inactive | NAM | 67 nM | – | CC1(C)COCCN1C(=O)c1ncc(C#Cc2cccc(Cl)c2)cn1 [Example 4, (3,3-Dimethyl-morpholin-4-yl)-[5-(3-chloro-phenylethynyl)-pyrimidin-2-yl]-methanone] | –
inactive | NAM | 23 nM | – | CC1(C)COCCN1C(=O)c1ccc(C#Cc2cccc(Cl)c2)cn1 [Example 3, (3,3-Dimethyl-morpholin-4-yl)-[5-(3-chloro-phenylethynyl)-pyridin-2-yl]-methanone] | –
– | – | – | – | CC1(C)CN(C(=O)c2ccc(C#Cc3cccc(F)c3)cn2)CCO1 [drawing 3] | Efficacy [%] [1]: 57%
